Data on six compounds can be found in patent US11298358B2, “Combination therapy using ascochlorin derivative” (priority 2017, dated 2022).

In series [1] the test system is BxPC-3. In words: Anti-proliferative activity, CellTiterGlo assay, BxPC-3. In kind it is cell-based. The conditions noted are these: Homo sapiens; BxPC-3, 96 hrs incubation; read-out: Antiproliferative activities (IC50) BxPC-3. As to the method: (§1) The anti-proliferative activities of the compounds against 6 human cancer cell lines were determined by CellTiterGlo assay kit. All cells were obtained from ATCC and cultured as recommended by the vendor. Cells were assayed in exponential growth phase. Sample solution was prepared by 3-fold serial dilution from 30 mM stock for 10 doses in DMSO. Antiproliferative activities were measured by CellTiterGlo assay kit according to the protocol after cells were incubated for 96 hrs in a 37° C., 5% CO2 incubator.
(§2) On the 4th day of incubation, i) 15 μl reagent (CelltiterGlo assay kit) was added per well and plate was shaken (avoiding light) for 2 mins on a plate shaker, ii) the plate was kept (avoiding light) in room temperature for 30 min, and iii) the luminescence value was recorded by Multiplate reader.
Background: Cellular ATP, detected with luciferase, serves as a proxy for viable cell number.

Series [2] concerns MDA-MB-231. In words: Anti-proliferative activity, CellTiterGlo assay, MDA-MB-231. It counts as cell-based. The conditions noted are these: Homo sapiens; MDA-MB-231, 96 hrs incubation; read-out: Antiproliferative activities (IC50) MDA-MB-231. As to the method: as §1, §2
Series [3] relates to A549. In words: Anti-proliferative activity, CellTiterGlo assay, A549. It counts as cell-based. Conditions: Homo sapiens; A549, 96 hrs incubation; read-out: Antiproliferative activities (IC50) A549. The procedure: as §1, §2
Series [4] relates to LNCaP. Nature of the series: Anti-proliferative activity, CellTiterGlo assay, LNCaP. The conditions noted are these: Homo sapiens, 96 hrs incubation, read-out: Antiproliferative activities (IC50) LNCaP. It counts as cell-based. As to the method: as §1, §2
Series [5] has as its system U87-MG. Nature of the series: Anti-proliferative activity, CellTiterGlo assay, U87-MG. It counts as cell-based. Conditions: Homo sapiens, U-87 MG, 96 hrs incubation, read-out: Antiproliferative activities (IC50) U87-MG. As to the method: as §1, §2
A short description of series [6]: Stability against mouse liver microsomes. In kind it is in vitro ADME. Conditions: 2 μM compound. The procedure:
(§3) Determination of Stability Against Mouse and Human Microsomes
(§4) Pooled human liver microsomes (Cat. 452161; Lot. 23418) were purchased from Corning and pooled male mouse liver microsomes (Cat. M1000; Lot. 1210302) were purchased from Xenotech. Microsomes were stored at −80° C. prior to use. 40 μL of ultra-pure H2O was used instead of NADPH solution in the negative control. The negative control was used to exclude the misleading factor that was resulted from instability of chemical itself. Samples with NADPH were prepared in duplicate. Negative controls were prepared in singlet.
(§5) The reaction was started with the addition of 4 μL of 200 μM compound solution to each master solution to get the final concentration of 2 μM. Verapamil was used as positive control in the assay. Aliquots of 50 μL were taken from the reaction solution at 0, 15, 30, 45 and 60 min. The reaction was stopped by addition of 4 volumes of cold acetonitrile with IS (200 nM imipramine, […] labetalol and 2 μM ketoprofen). Samples were centrifuged at 3,220 g for 40 minutes. Aliquot of 90 μL of the supernatant was mixed with 90 μL of ultra-pure H2O and then was used for LC-MS/MS analysis. Results are shown in Table 3 by indicating remaining % of the test compound after 60 minutes incubation with liver microsomes from human and mouse in the presence of NADPH.
In general terms: Liver microsomes are vesicles of endoplasmic reticulum, rich in cytochrome P450 enzymes.

The nature of series [7]: Stability against human liver microsomes. It counts as in vitro ADME. Conditions: 2 μM compound. The procedure:
as §3, §4, §5

Series [8] has as its system HT29. In words: Anti-proliferative activity, CellTiterGlo assay, HT29. Conditions: Homo sapiens, HT-29; HT29, 96 hrs incubation; read-out: Antiproliferative activities (IC50) HT29. In kind it is cell-based. The procedure: as §1, §2
Series [9] has as its system CT26 tumor cells. Nature of the series: Efficacy study in CT26 syngeneic mouse model. It counts as in vivo. Conditions: for antitumor activity (in words): Cmpd 19 alone. As to the method: An efficacy study was conducted by using Compound 19 (Cmpd 19) with CT26 syngeneic mouse model. Female BALB/c mice (Vital River, Beijing, China) of 7 to 9 weeks old with body weight between 19 and 21 g were used. Each mouse was inoculated subcutaneously on the right flank with CT26 tumor cells (2×10^5) in 0.1 mL of PBS for tumor development. On Day 5 after tumor inoculation, mice were randomized into groups. Each group consisted of 10 tumor-bearing mice. The treatment with Cmpd 19 was then started on Day 5.
As an anti PD-1 antibody, anti-mouse PD-1 antibody (CD279, Clone: RMP1-14, Catalog #: BE0146 from Bio X Cell) was used.
The measurement of tumor size was conducted three times weekly with calipers, and the tumor volume (mm^3) is estimated using the formula: TV=(a×b^2)/2, where “a” and “b” are long and short diameters of a tumor, respectively. The TVs were used for calculation of the tumor growth inhibition (TGI, an indicator of antitumor effectiveness), using formula: TGI=(1−T/C)×100%, where “T” and “C” are the mean relative volumes (% tumor growth) of the tumors in the treated and the control groups. Data were analyzed using GraphPad Software and represented as the mean value±SD in FIG. 3 in which error bars are shown. The p values were assessed using One-Way ANOVA Dunnett test and vehicle control (G1) as control group. A case with p<0.05 was considered as statistically significant.

In series [10] the test system is AMPK in HepG2 cell. Conditions: HepG2 cells, reported in the literature; cited from earlier work.
Series [11] can be described thus: Solubility in pH4.0 and pH7.4 phosphate buffer solution. Conditions: 2 hr incubation, 25° C.
Protocol: 1) Preparation of Stock Solutions
The stock solutions of test compounds and positive control compound were prepared in DMSO at the concentration of 30 mM. Diclofenac was used as positive control in the assay.
2) Procedures for Solubility Determination
The stock solution of each compound (10 μL) was placed in order into their proper 96-well rack, followed by adding 990 μL of PBS at pH 4.0 and pH 7.4 into each vial of the cap-less Solubility Sample plate. This study was performed in duplicate. One stir stick was added to each vial and then vials were sealed using a molded PTDE/SIL 96-Well Plate Cover. The Solubility Sample plate was transferred to the Thermomixer Comfort plate shaker and incubated at 25° C. for 2 hours with shaking at 1,100 rpm. After 2 hours incubation, stir sticks were removed using a big magnet and all samples from the Solubility Sample plate were transferred into the filter plate. All the samples were filtered by using the vacuum manifold. The filtered samples were diluted with methanol.
3) Samples Analyzed by LC-MS/MS:
The LC system comprised a Shimadzu liquid chromatograph separation system equipped with degasser DGU-20A3, solvent delivery unit LC-20AD, system controller CBM-20A, column oven CTO-10ASVP and CTC Analytics HTC PAL System. Mass spectrometric analysis was performed using an API 4000 instrument from AB Inc (Canada) with an ESI interface.
[12] abbreviates: G3: Cmpd 19 50 mg/kg p.o. once a day x 18.
[13] abbreviates: G4: Cmpd 19 25 mg/kg p.o. once a day x 18.

Read-outs that look alike come from different tables or passages of the source. A value given as a limit tells only on which side of the number the result lay.

As to `COc1c(Cl)c(C)c(/C=N/O)c(O)c1C/C=C(C)/C=C/[C@@]1(C)[C@H](C)CC[C@](C)(O)[C@@H]1C` [Compound 7, 4-chloro-2-[(2E,4E)-5-[(1R,2R,3S,6R)-3-hydroxy-1,2,3,6-tetramethylcyclohexyl]-3-methylpenta-2,4-dien-1-yl]-6-[(1E)-(hydroxyimino)methyl]-3-methoxy-5-methylphenol], the concentration for half-maximal inhibition (IC50) (usually the concentration that gives 50% inhibition) came out at 12.8 µM in [1]; 6.8 µM in series [2]; 6.5 µM in [3]; 7.2 µM in [4]; 13.1 µM in series [5]; 10 µM in series [8]. In addition, the “Liver microsome stability remaining % after 60 min incubation with NADPH, mouse LM” value in [6] is on record as 71%. Besides, the “Liver microsome stability remaining % after 60 min incubation with NADPH, human LM” value in [7] came out at 71%.
For `CO/N=C/c1c(C)c(Cl)c(OC)c(C/C=C(C)/C=C/[C@@]2(C)[C@H](C)CC[C@](C)(O)[C@@H]2C)c1O` [Compound 14, 4-chloro-2-[(2E,4E)-5-[(1R,2R,3S,6R)-3-hydroxy-1,2,3,6-tetramethylcyclohexyl]-3-methylpenta-2,4-dien-1-yl]-3-methoxy-6-[(1E)-(methoxyimino)methyl]-5-methylphenol], in series [6], the “Liver microsome stability remaining % after 60 min incubation with NADPH, mouse LM” value was determined as 88%. Besides, the “Liver microsome stability remaining % after 60 min incubation with NADPH, human LM” value in series [7] worked out at 99%.
Take `CO/N=C/c1c(C)c(Cl)c(OC)c(C/C=C(C)/C=C/[C@@]2(C)[C@H](C)CC/C(=N\OCC(=O)O)[C@@H]2C)c1O` [Compound 19, 2-([[(1E,2R,3R,4R)-3-[(1E,3E)-5-[3-chloro-6-hydroxy-2-methoxy-5-[(1E)-(methoxyimino)methyl]-4-methylphenyl]-3-methylpenta-1,3-dien-1-yl]-2,3,4-trimethylcyclohexylidene]amino]oxy)acetic acid]: the “antitumor activity (in words)” value in series [9] (25 mg/kg p.o.) and in series [9] (50 mg/kg p.o.) was “minor or no antitumor activity” each time. Further, the “TGI (%)” value is −1.4% in [9] (setting [12]) and 6.5% in [9] (setting [13]). The “Tumor volume (mm^3, on Day 23)” value is on record as 6,483 ± 310 mm^3 in [9] (setting [12]) and 6,056 ± 689 mm^3 in series [9] (setting [13]).
As to `COc1c(Cl)c(C)c(C=O)c(O)c1C/C=C(C)/C=C/[C@@]1(C)[C@H](C)CCC(=O)[C@@H]1C` [MAC, 4-O-Methy-ascochlorin], where the note is “pH 4”, the “Solubility pH 4.0 PBS” value is listed as under 0.08 μM. For the same compound, the “Solubility pH 7.4 PBS” value (pH 7.4) is given as 0.07 μM. Further, the “AMPK activation in HepG2 cell” value in series [10] is given as “ability for activating AMPK”.
With `CN(C)C(=N)N=C(N)N` [Metformin], the “AMPK activation in HepG2 cell” value in series [10] is “only at surprisingly high concentration of mM level”.
As to `COc1c(Cl)c(C)c(C=NCC(N)=O)c(O)c1C/C=C(C)/C=C/[C@@]1(C)[C@H](C)CCC(=O)[C@@H]1C` [compound #13 in WO2004/074236], the “Solubility pH 4.0 PBS” value in series [11] (pH 4.0 phosphate buffer solution) is recorded as “converted to MAC”. For the same compound, the “Solubility pH 7.4 PBS” value in series [11] (pH 7.4 phosphate buffer solution) came out at 0.02 μM.
